In US11261184B2, “[1,6]naphthyridine compounds and derivatives as CDK8/CDK19 inhibitors” (Boehringer Ingelheim International GmbH, priority 2017, dated 2022):

Experiments:
[1] = target: CDK8/cyclin C (Homo sapiens (Human), UniProt P49336); assay: CDK8 biochemical assay (TR-FRET Kinase Tracer 236 displacement); assay type: binding; settings: 5 nM CDK8/cyclin C, 10 nM Kinase Tracer 236, 60 min
Experimental: This assay is used to identify compounds which competitively interact with the binding pocket of the CDK8 kinase.
Assay-ready plates (ARPs; Proxiplate-384 PLUS, white, PerkinElmer) with compound solution in 100% DMSO are generated on an Access Labcyte Workstation with the Labcyte Echo 55x. 150 nL of compound solution are transferred per well in 11 concentrations in duplicates with serial 1:5 dilutions. The final DMSO concentration in the assay is 1%.
5 nM (final assay concentration) CDK8/cyclin C, 2 nM (final assay concentration) Biotin anti-His Tag Antibody and 2 nM (final assay concentration) LanthaScreen Eu-Streptavidin are mixed in assay buffer (50 mM HEPES pH 7.3, 10 mM MgCl2, 1 mM EGTA, 0.01% Brij-35, 0.05% BSA, 1 mM DTT) prior to use and kept at room temperature.
The assay runs on a fully automated robotic system. 10 μL of CDK8/cyclin C, Biotin anti-His Tag Antibody and LanthaScreen Eu-Streptavidin mix are dispensed into columns 1-24. 5 μL of 10 nM (final assay concentration) Kinase Tracer 236 solution in assay buffer are added to columns 1-23, 5 μL of assay buffer into column 24. Plates are kept at room temperature in a darkened incubator. After 60 min incubation time the signal is measured in a PerkinElmer Envision HTS Multilabel Reader using the TR-FRET specs from PerkinElmer.
Each plate contains 16 wells of a negative control (diluted DMSO instead of test compound; CDK8/cyclin C, Biotin anti-His Tag Antibody and LanthaScreen Eu-Streptavidin mix w Kinase Tracer 236; column 23) and 16 wells of a positive control (diluted DMSO instead of test compound; CDK8/cyclin C, Biotin anti-His Tag Antibody and LanthaScreen Eu-Streptavidin mix w/o Kinase Tracer 236; column 24). A known inhibitor of CDK8/cyclin C binding is used as internal control. IC50 values are calculated and analyzed in the MEGALAB IC50 application using a 4 parametric logistic model.
Table 4 includes IC50 values of example compounds determined using the above assay.

[2] = Metabolic (microsomal) stability assay, mouse liver microsomes; assay type: in vitro ADME; settings: predicted clearance as percent of liver blood flow; mouse liver microsomes 0.5 mg/mL, 1 μM compound, 37° C.
Experimental: (§1) Metabolic (Microsomal) Stability Assay
(§2) The metabolic degradation of the test compound is assayed at 37° C. with pooled liver microsomes (mouse (MLM), rat (RLM) or human (HLM)). The final incubation volume of 74 μL per time point contains TRIS buffer (pH 7.5; 0.1 M), magnesium chloride (6.5 mM), microsomal protein (0.5 mg/mL for mouse/rat, 1 mg/mL for human specimens) and the test compound at a final concentration of 1 μM. Following a short preincubation period at 37° C., the reactions are initiated by addition of 8 μL beta-nicotinamide adenine dinucleotide phosphate, reduced form (NADPH, 10 mM) and terminated by transferring an aliquot into solvent after different time points. Additionally, the NADPH-independent degradation is monitored in incubations without NADPH, terminated at the last time point by addition of acetonitril. The quenched incubations are pelleted by centrifugation (1811 g, 5 min). An aliquot of the supernatant is assayed by LC-MS/MS for the amount of parent compound.
(§3) In vitro intrinsic clearance (CLint,in vitro) is calculated from the time course of the disappearance of the test drug during the microsomal incubation. Each plot is fitted to the first-order elimination rate constant as C(t)=C0*exp(−ke*t), where C(t) and C0 are the concentration of unchanged test drug at incubation time t and that at preincubation and ke is the disappearance rate constant of the unchanged drug. Subsequently, CLint,in vitro (μL·min^−1·amount protein) values are converted to CLint,in vitro (mL·min^−1·kg^−1) for the whole body. CLint,in vitro data are scaled up using physiological parameters. For better across species comparison the predicted clearance is expressed as percent of the liver blood flow [% QH] in the individual species. In general high stability (corresponding to low % QH) of the compounds across species is desired.

[3] = Metabolic (microsomal) stability assay, rat liver microsomes; assay type: in vitro ADME; settings: predicted clearance as percent of liver blood flow; rat liver microsomes 0.5 mg/mL, 1 μM compound, 37° C.
Experimental: as §1, §2, §3

[4] = Metabolic (microsomal) stability assay, human liver microsomes; assay type: in vitro ADME; settings: predicted clearance as percent of liver blood flow; human liver microsomes 1 mg/mL, 1 μM compound, 37° C.
Experimental: as §1, §2, §3

Sequence of CDK8/cyclin C (P49336 whole entry): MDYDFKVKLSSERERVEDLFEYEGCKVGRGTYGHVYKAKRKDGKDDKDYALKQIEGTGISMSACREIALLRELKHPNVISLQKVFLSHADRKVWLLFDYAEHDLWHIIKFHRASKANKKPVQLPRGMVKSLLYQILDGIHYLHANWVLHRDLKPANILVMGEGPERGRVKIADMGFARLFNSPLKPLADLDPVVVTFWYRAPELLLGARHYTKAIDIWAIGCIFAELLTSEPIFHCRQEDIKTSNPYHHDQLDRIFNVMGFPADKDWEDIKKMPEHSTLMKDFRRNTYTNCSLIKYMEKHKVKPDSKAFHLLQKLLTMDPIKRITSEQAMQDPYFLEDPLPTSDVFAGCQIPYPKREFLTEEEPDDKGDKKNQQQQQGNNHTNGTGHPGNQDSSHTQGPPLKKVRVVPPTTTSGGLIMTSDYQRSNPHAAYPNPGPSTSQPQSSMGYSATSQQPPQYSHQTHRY
Sequence of CDK8/cyclin C (P24863 whole entry partner): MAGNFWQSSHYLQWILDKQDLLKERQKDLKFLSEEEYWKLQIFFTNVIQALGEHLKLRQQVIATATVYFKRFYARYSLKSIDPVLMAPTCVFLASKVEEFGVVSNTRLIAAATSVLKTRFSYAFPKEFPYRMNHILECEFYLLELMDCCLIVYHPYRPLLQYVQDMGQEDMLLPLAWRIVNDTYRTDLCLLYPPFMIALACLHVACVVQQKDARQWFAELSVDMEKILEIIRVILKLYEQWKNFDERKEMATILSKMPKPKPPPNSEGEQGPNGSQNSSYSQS

Compound | IC50 [1] [nM] | MLM [% QH] [2] [% QH] | RLM [% QH] [3] [% QH] | HLM [% QH] [4] [% QH]
c1cc2nccc(Oc3ccc(N4CCCC4)cc3)c2cn1 [I-001] | 3.6 |  |  | 
Fc1cncc2c(Oc3ccc(N4CCCC4)cc3)ccnc12 [I-002] | 3.4 |  |  | 
Clc1cncc2c(Oc3ccc(N4CCCC4)cc3)ccnc12 [I-003] | 2.4 |  |  | 
Cc1cncc2c(Oc3ccc(N4CCCC4)cc3)ccnc12 [I-004] | 3.7 |  |  | 
Cc1nccc2nccc(Oc3ccc(N4CCCC4)cc3)c12 [I-005] | 11.2 |  |  | 
CN(CCO)C(=O)[C@H]1CCN(c2ccc(Oc3ccnc4c(F)cncc34)cc2)C1 [I-017, (S)-1-[4-(8-fluoro-[1,6]naphthyridin-4-yloxy)-phenyl]-pyrrolidine-3-carboxylic acid (2-hydroxy-ethyl)-methyl-amide] | 1.8 | <24 | 24 | <24
CN(C)C(=O)[C@@H]1CCN(c2ccc(Oc3ccnc4c(F)cncc34)cc2)C1 [I-019] | 1.7 | 28 | 41 | <24
N[C@H]1CCN(c2ccc(Oc3ccnc4c(F)cncc34)cc2)C1 [I-022] | 8.3 | <24 | <24 | <24
CC(=O)N[C@H]1CCN(c2ccc(Oc3ccnc4c(F)cncc34)cc2)C1 [I-023] | 2.1 | <24 | <24 | <24
CC(=O)N[C@@H]1CCN(c2ccc(Oc3ccnc4c(F)cncc34)cc2)C1 [I-026] | 2.9 | <24 | 25 | <24
CC(=O)N1CCN(c2ccc(Oc3cc(N(C)C)nc4ccncc34)cc2)CC1 [I-027] | 4.5 |  |  | 
CN1CCN(c2ccc(Oc3ccnc4ccncc34)cc2)CC1 [I-028] | 11.1 |  |  | 
Fc1cncc2c(Oc3ccc(N4CCn5ccnc5C4)cc3)ccnc12 [I-029] | 16.6 | 36 | 57 | 29
c1cc2nccc(Oc3ccc(N4CCOCC4)cc3)c2cn1 [I-030] | 14 | 58 | 60 | <24
CC(=O)N1CCN(c2ccc(Oc3ccnc4ccncc34)cc2)CC1 [I-031] | 4.7 | 42 | 29 | 28
CN(C)C(=O)C1CN(c2ccc(Oc3ccnc4c(F)cncc34)cc2)C1 [I-032] | 2.1 | <24 | <24 | 27
CC(=O)NC1CN(c2ccc(Oc3ccnc4c(F)cncc34)cc2)C1 [I-033] | 3.9 |  |  | 
COc1cc(Oc2ccc(N3CCN(C(C)=O)CC3)cc2)c2cnccc2n1 [I-034] | 14 |  |  | 
CN1CCC(COc2ccc(Oc3ccnc4c(F)cncc34)cc2)C1=O (centres unmarked) [I-035] | 3.7 | <24 | 35 | <24
CN(C)C(=O)CCOc1ccc(Oc2ccnc3c(F)cncc23)cc1 [I-036] | 4.8 | <24 | 32 | <24
O=C1CCCN1CCOc1ccc(Oc2ccnc3c(F)cncc23)cc1 [I-037] | 27 | <24 | 47 | <24
CC(=O)N(C)CCOc1ccc(Oc2ccnc3c(F)cncc23)cc1 [I-038] | 6.6 |  |  | 
CN(C)C(=O)Cn1cc(-c2ccc(Oc3ccnc4c(F)cncc34)cc2)cn1 [I-039, 2-{4-[4-(8-fluoro-[1,6]naphthyridin-4-yloxy)-phenyl]-pyrazol-1-yl}-N,N-dimethyl-acetamide] | 2.5 | 26 | <24 | <24
CN(C)C(=O)Cn1cc(-c2ccc(Oc3ccnc4ccncc34)cc2)cn1 [I-040] | 2.6 | 45 | 32 | 27
Cc1cncc2c(Oc3ccc(-c4cnn(CC(=O)N(C)C)c4)cc3)ccnc12 [I-041] | 5 |  |  | 
CN(C)C(=O)Cn1cc(-c2ccc(Oc3ccnc4c(Cl)cncc34)cc2)cn1 [I-043] | 2.7 | 25 | 42 | <24

Next, values leading:

IC50 [1] [nM] | MLM [% QH] [2] [% QH] | RLM [% QH] [3] [% QH] | HLM [% QH] [4] [% QH] | Compound
1.6 |  |  |  | CN(C)C(=O)[C@H]1CCN(c2ccc(Oc3ccnc4ccncc34)cc2)C1 [I-006]
1.3 | 49 | 66 | <24 | CN(C)C(=O)[C@H]1CCN(c2ccc(Oc3ccnc4c(Cl)cncc34)cc2)C1 [I-007]
1.3 | 57 |  | 50 | CN(CCO)C(=O)[C@H]1CCN(c2ccc(Oc3ccnc4c(Cl)cncc34)cc2)C1 [I-010]
1.5 |  |  |  | COCCN(C)C(=O)[C@H]1CCN(c2ccc(Oc3ccnc4c(Cl)cncc34)cc2)C1 [I-011]
1.3 |  |  |  | CN1CCN(C(=O)[C@H]2CCN(c3ccc(Oc4ccnc5c(Cl)cncc45)cc3)C2)CC1 [I-012]
1.2 | 59 |  | 44 | O=C([C@H]1CCN(c2ccc(Oc3ccnc4c(Cl)cncc34)cc2)C1)N1CCOCC1 [I-013]
1.7 |  |  |  | Cc1cncc2c(Oc3ccc(N4CC[C@H](C(=O)N(C)C)C4)cc3)ccnc12 [I-014]
1.5 | <24 | 43 | <24 | CN(C)C(=O)[C@H]1CCN(c2ccc(Oc3ccnc4c(F)cncc34)cc2)C1 [I-015]
1.2 |  |  |  | CN1CCN(C(=O)[C@H]2CCN(c3ccc(Oc4ccnc5c(F)cncc45)cc3)C2)CC1 [I-016]
1.2 | 44 | 55 | 30 | CN(C)C(=O)[C@@H]1CCN(c2ccc(Oc3ccnc4c(Cl)cncc34)cc2)C1 [I-018]
1.4 | <24 | <24 | <24 | CN(CCO)C(=O)[C@@H]1CCN(c2ccc(Oc3ccnc4c(F)cncc34)cc2)C1 [I-020]
< 1 |  |  |  | CN1CCN(C(=O)[C@@H]2CCN(c3ccc(Oc4ccnc5c(F)cncc45)cc3)C2)CC1 [I-021]
1.4 | <24 | <24 | <24 | CC(=O)N(C)[C@H]1CCN(c2ccc(Oc3ccnc4c(F)cncc34)cc2)C1 [I-024]
1.6 |  |  |  | O=C1CCCN1[C@H]1CCN(c2ccc(Oc3ccnc4c(F)cncc34)cc2)C1 [I-025]
